Experiments:
[1] = target: T1, Ba/F3 cells expressing BCR-ABL (Homo sapiens, UniProt P00519); experiment: Ba/F3 CellTiter-Glo Assay; type: cell-based; settings: 48 h incubation, CellTiter-Glo luminescence
T1 construct: BCR (fusion partner, N-terminal portion of BCR); host or cells: Ba/F3 (murine pro-B cells); the other entry of the earlier key: BCR (P11274, Breakpoint cluster region protein)
T1 sequence (P00519 229-512 limits assumed): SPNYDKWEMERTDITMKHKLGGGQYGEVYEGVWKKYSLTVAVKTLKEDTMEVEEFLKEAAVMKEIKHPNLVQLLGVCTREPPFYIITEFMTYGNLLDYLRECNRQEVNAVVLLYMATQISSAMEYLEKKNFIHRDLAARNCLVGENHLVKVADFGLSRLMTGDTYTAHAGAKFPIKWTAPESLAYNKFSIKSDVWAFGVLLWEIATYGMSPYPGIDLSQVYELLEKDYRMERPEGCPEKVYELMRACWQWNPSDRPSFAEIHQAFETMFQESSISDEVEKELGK
Protocol: The CellTiter-Glo luminescent cell viability assay is a homogeneous method of determining the number of viable cells in culture based on quantification of the ATP present. Briefly, IL-3 dependent Ba/F3 cells are modified to express BCR-ABL. Activity of the transformed kinase overrides IL-3 dependency for cellular proliferation and survival. […] In this assay Ba/F3 cells expressing BCR-ABL (Advanced Cellular Dynamics) or parental Ba/F3 (control) cells were prepared at 5×10^4/mL in RPMI 1640 containing 10% FBS, 1×Glutamax and 750 ng/mL puromycin. Test compounds were dispensed into 384 well plates using the Tecan D300e at a top final assay concentration of 10 μM with dosing normalised to 0.1% DMSO in […]. 50 μL cells were added to each well of the prepared 384 well plates and the plates spun at 1000 rpm for 1 min prior to incubation at 37° C., 5% CO2 for 48 h. After 48 h 15 μL CellTiter-Glo reagent was added to each well in the plate. Following a 60 min incubation at rt luminescence was read on the Pherastar FS reader.

[2] = target: T2, MDR1 (Homo sapiens, UniProt P08183); experiment: MDR1-MDCK effective efflux ratio; type: in vitro ADME; settings: MDR1-MDCK relative to wild-type MDCK, 1 μM, 60 minutes, pH 7.4
T2 construct: expressed in transfected cells; host or cells: MDCK (canine kidney) cells
Protocol: (§1) Wild-type MDCK, MDR1-MDCK and BCRP-MDCK cells were seeded into 24 well Transwell plates and cultured for 3 days to form monolayers. Test compound were prepared at 1 μM in Hanks' Balanced Salt Solution containing 25 mM HEPES and loaded into the donor compartments of Transwell plates bearing the cell monolayers (pH 7.4 for both donor and receiver compartments). Lucifer Yellow was added to the apical buffer in all wells to assess integrity of the cell monolayer. Duplicate wells were prepared and incubated at 37° C. in a CO2 incubator. Samples were removed at time zero and 60 minutes and test compound analysed by LC-MS/MS. Concentrations of Lucifer Yellow in the samples was measured using a fluorescence plate reader. The apparent permeability (Papp) values of test compound was determined for both the apical to basal (A>B) and basal to apical (B>A) permeation and the efflux ratio (B>A: A>B) determined in each cell line. The effective efflux ratio was determined from the ratio of either MDR1-MDCK cells or BCRP-MDCK cells relative to the ratio observed in wild-type cells. A higher value represent a better substrate for the efflux mechanism, which is less preferable.

[3] = target: T3, BCRP (Homo sapiens, UniProt Q9UNQ0); experiment: BCRP-MDCK effective efflux ratio; type: in vitro ADME; settings: BCRP-MDCK relative to wild-type MDCK, 1 μM, 60 minutes, pH 7.4
T3 construct: expressed in transfected cells; host or cells: MDCK (canine kidney) cells
T3 sequence (Q9UNQ0 1-655): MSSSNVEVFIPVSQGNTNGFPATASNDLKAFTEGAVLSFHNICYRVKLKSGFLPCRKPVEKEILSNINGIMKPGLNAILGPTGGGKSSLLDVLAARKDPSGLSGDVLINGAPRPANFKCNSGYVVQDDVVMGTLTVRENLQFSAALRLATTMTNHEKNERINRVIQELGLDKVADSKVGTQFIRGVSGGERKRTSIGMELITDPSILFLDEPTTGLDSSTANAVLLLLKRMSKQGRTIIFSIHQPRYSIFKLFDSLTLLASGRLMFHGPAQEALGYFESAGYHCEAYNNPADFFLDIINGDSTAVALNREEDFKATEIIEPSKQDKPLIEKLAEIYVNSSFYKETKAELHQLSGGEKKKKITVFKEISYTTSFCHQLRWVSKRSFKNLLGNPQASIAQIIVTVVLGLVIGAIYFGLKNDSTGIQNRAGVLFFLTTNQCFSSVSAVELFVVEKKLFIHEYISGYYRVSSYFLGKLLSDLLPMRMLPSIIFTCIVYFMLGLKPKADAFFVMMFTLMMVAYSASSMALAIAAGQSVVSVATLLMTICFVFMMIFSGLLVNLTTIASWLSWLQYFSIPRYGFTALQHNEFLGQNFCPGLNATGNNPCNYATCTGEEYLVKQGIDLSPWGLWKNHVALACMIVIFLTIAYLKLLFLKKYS
Protocol: as §1

[4] = Rat microsomal stability; type: in vitro ADME; settings: rat microsomes, second value of cell; NADPH, 37° C., up to 40 min
Protocol: (§2) This assay measures the metabolic stability of a given compound and predicts intrinsic liver clearance for various species. A quench plate is initially prepared which contains 400 μL MeCN and 25 ng/mL of internal standard. An aliquot of microsomes is defrosted and subsequently diluted with buffer. A solution of NADPH is made up fresh just before initialising the assay. 445 μL of microsome solution is added to the desired compound (5 μL in 10 μM DMSO) and the resulting solution mixed. The reaction is initiated by the addition of 50 μL of NADPH, a T0 sample is removed before the addition and quenched. The sample plate is kept at a constant 37° C. during the incubation. At pre-determined timepoints (2.5, 5, 10, 20 and 40 min) the incubation is mixed and 22.5 μL samples are transferred to quench plates. After completion of the time course, the quench plates are sealed and shaken for a minimum of 5 min, before centrifugation at 4000 rpm for 5 min. The supernatant is then subsequently transferred to a fresh plate and diluted 1:3 with MeOH/H2O. The plates are then heat sealed and analysed by a Water Acquity UPLC and a Waters TQ-S mass spectrometer. Waters MassLynx software is used for analysis using an MRM transition that has been previously generated from prior optimisation. After acquiring the data on the system the chromatograms are processed and checked using TargetLynx XS software and the raw data output is copied into a microsomal stability workbook. The workbook automatically populates and derives the CLint, t1/2 and scales the CLint values to generate Eh and predicted CL values. The analyst has the final workbook quality checked before the experiment is signed off.

[5] = Human microsomal stability; type: in vitro ADME; settings: human microsomes, first value of cell; NADPH, 37° C., up to 40 min
Protocol: as §2

T2 sequence (P08183 whole entry, species assumed): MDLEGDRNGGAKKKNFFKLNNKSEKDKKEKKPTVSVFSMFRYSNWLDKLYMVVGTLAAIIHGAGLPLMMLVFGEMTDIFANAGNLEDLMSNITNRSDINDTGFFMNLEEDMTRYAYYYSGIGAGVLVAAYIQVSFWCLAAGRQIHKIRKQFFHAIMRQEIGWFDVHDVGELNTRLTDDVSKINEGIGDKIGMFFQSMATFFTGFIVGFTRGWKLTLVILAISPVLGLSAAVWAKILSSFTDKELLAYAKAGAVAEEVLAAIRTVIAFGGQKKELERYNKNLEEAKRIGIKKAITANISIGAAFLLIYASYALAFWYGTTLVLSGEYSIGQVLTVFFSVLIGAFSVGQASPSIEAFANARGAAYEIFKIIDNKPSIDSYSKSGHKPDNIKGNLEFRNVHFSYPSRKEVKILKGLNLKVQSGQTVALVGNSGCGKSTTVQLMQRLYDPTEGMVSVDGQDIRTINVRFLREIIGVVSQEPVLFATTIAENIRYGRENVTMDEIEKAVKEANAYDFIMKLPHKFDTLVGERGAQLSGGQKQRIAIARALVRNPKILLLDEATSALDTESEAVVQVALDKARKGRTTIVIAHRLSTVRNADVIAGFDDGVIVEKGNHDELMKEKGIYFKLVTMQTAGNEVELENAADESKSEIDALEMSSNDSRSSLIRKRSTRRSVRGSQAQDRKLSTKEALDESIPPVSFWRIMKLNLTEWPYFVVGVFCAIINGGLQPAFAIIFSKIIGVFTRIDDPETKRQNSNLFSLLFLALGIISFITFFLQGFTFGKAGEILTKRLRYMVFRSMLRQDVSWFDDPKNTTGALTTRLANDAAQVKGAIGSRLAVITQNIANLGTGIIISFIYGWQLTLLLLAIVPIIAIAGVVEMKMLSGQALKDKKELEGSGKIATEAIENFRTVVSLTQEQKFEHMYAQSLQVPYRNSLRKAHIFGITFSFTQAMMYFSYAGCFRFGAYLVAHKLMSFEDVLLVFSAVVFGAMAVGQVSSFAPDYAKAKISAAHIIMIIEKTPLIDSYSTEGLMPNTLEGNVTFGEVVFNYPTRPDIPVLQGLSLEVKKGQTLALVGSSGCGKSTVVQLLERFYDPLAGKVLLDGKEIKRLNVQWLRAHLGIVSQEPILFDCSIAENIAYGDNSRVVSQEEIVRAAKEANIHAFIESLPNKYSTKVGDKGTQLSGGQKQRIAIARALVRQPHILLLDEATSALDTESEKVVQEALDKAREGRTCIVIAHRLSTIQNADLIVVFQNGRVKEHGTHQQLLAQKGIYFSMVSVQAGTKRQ

SMILES | IC50 [1] | MDCK MDR1 EER [2] | MDCK BCRP EER [3] | Microsomal stability (human/rat) Eh [4] | Microsomal stability (human/rat) Eh [5]
Cc1ccc(C(=O)Nc2cc(C(F)(F)F)ccn2)cc1-n1ccc(-c2cccnc2)n1 [Comparative example 4, 4-Methyl-3-[3-(3-pyridyl)pyrazol-1-yl]-N-[4-(trifluoromethyl)-2-pyridyl]benzamide, reference compound] | 2710 nM | – | – | – | –
Cc1ccc(C(=O)Nc2cc(CN3CCOCC3)cc(C(F)(F)F)c2)cc1-n1cc(-c2cccnc2)cn1 [Comparative example 2, 4-Methyl-N-[3-(morpholinomethyl)-5-(trifluoromethyl)phenyl]-3-[4-(3-pyridyl)pyrazol-1-yl]benzamide, reference compound] | – | 6.5 | 1.8 | 0.99 | 0.96
Cc1ccc(C(=O)Nc2cc(CN3CCCC3)cc(C(F)(F)F)c2)cc1-n1cc(-c2cccnc2)cn1 [Comparative example 1, 4-Methyl-3-[4-(3-pyridyl)pyrazol-1-yl]-N-[3-(pyrrolidin-1-ylmethyl)-5-(trifluoromethyl)phenyl]benzamide, reference compound] | – | – | – | 0.93 | 0.81
Cc1ccc(C(=O)Nc2cc(C(F)(F)F)ccn2)cc1-n1cc(-c2cncnc2)cn1 [Example 3, 4-Methyl-3-(4-pyrimidin-5-ylpyrazol-1-yl)-N-[4-(trifluoromethyl)-2-pyridyl]benzamide] | 25 nM | 1.0 | 1.0 | 0.44 | 0.56
Cc1ccc(C(=O)Nc2cc(C(F)(F)F)ccn2)cc1-n1cc(-c2cccnc2)cn1 [Example 1, 4-Methyl-3-[4-(3-pyridyl)pyrazol-1-yl]-N-[4-(trifluoromethyl)-2-pyridyl]benzamide] | 22 nM | 1 | 1.5 | 0.69 | 0.70
Cc1ccc(C(=O)Nc2cc(C(F)(F)F)ccn2)cc1-n1cc(-c2cnn(C)c2C)cn1 [Example 4, 3-[4-(1,5-Dimethylpyrazol-4-yl)pyrazol-1-yl]-4-methyl-N-[4-(trifluoromethyl)-2-pyridyl]benzamide] | 72 nM | 1.2 | 1.3 | 0.60 | < 0.44
CNc1ncc(-c2cnn(-c3cc(C(=O)Nc4cc(C(F)(F)F)ccn4)ccc3C)c2)cn1 [Example 5, 4-Methyl-3-[4-[2-(methylamino)pyrimidin-5-yl]pyrazol-1-yl]-N-[4-(trifluoromethyl)-2-pyridyl]benzamide] | 54 nM | 1.1 | 1.0 | – | –

Second part, the compound after the results:

IC50 [1] | MDCK MDR1 EER [2] | MDCK BCRP EER [3] | Microsomal stability (human/rat) Eh [4] | Microsomal stability (human/rat) Eh [5] | SMILES
18 nM | – | – | 0.65 | 0.70 | Cc1ccc(C(=O)Nc2cc(C(F)(F)F)cc(C#N)n2)cc1-n1cc(-c2cccnc2)cn1 [Example 10, N-[6-cyano-4-(trifluoromethyl)pyridin-2-yl]-4-methyl-3-[4-(pyridin-3-yl)-1H-pyrazol-1-yl]benzamide]
83 nM | – | – | – | – | Cc1ccc(C(=O)Nc2cc(C(F)(F)F)ccn2)cc1-n1cc(-c2cncc(N3CCN(C)CC3)c2)cn1 [Example 6, 4-Methyl-3-[4-[5-(4-methylpiperazin-1-yl)-3-pyridyl]pyrazol-1-yl]-N-[4-(trifluoromethyl)-2-pyridyl]benzamide]
– | 9.8 | 8.5 | – | – | Cc1ccc(C(=O)Nc2cc(C(F)(F)F)cnn2)cc1-n1cc(-c2cccnc2)nn1 [compound 3, 4-Methyl-3-[4-(3-pyridyl)triazol-1-yl]-N-[5-(trifluoromethyl)pyridazin-3-yl]benzamide, reference compound]
– | 4.3 | 2.1 | – | – | Cc1ccc(C(=O)Nc2ccc(CN3CCN(C)CC3)c(C(F)(F)F)c2)cc1-n1cc(-c2cnc(N)nc2)nn1 [compound 5, 3-[4-(2-aminopyrimidin-5-yl)triazol-1-yl]-4-methyl-N-[4-[(4-methylpiperazin-1-yl)methyl]-3-(trifluoromethyl)phenyl]benzamide, reference compound]
32 nM | 1.2 | 0.8 | – | – | Cc1cncc(-c2cnn(-c3cc(C(=O)Nc4cc(C(F)(F)F)ccn4)ccc3C)c2)c1 [Example 7]
29 nM | 1.6 | 1.1 | – | – | Cc1ccc(C(=O)Nc2cc(C(F)(F)F)ccn2)cc1-n1cc(-c2cncc(F)c2)cn1 [Example 8, 3-[4-(5-Fluoropyridin-3-yl)-1H-pyrazol-1-yl]-4-methyl-N-[4-(trifluoromethyl)pyridin-2-yl]benzamide]
– | 15.8 | 5.0 | – | – | Cc1ccc(C(=O)Nc2cc(C(F)(F)F)c(CN3CCN(C)CC3)cn2)cc1-n1cc(-c2cccnc2)cn1 [compound 6, 4-Methyl-N-[5-[(4-methylpiperazin-1-yl)methyl]-4-(trifluoromethyl)-2-pyridyl]-3-[4-(3-pyridyl)pyrazol-1-yl]benzamide, reference compound]
28 nM | 1.2 | 1.1 | – | – | COc1cncc(-c2cnn(-c3cc(C(=O)Nc4cc(C(F)(F)F)ccn4)ccc3C)c2)c1 [Example 9, 3-[4-(5-methoxypyridin-3-yl)-1H-pyrazol-1-yl]-4-methyl-N-[4-(trifluoromethyl)pyridin-2-yl]benzamide]
